# Values quoted from earlier work as cited in patent EP0620000A2, “Cosmetic or pharmaceutical use of N-acylalcanolamines” (RHONE-POULENC RORER GMBH, priority 1992, dated 1994).
# Details: orale Anwendung; tierexperimentelle Prüfungen; DE 27 56 866 A1
substance,measurement,value
N-Oleyl-Phosphatidylethanolaminen,antiarteriosklerotische bzw. antilipämische Wirkung,deutlich antiarteriosklerotische bzw. antilipämische Wirkung
